From ChEMBL document CHEMBL1149518, “High affinity inhibitors of the dopamine transporter (DAT): novel biotinylated ligands for conjugation to quantum dots” (Bioorg Med Chem Lett, 2006)

Biological target: Sodium-dependent dopamine transporter (Homo sapiens, UniProt Q01959)
Assay: Inhibition of [3H]dopamine uptake at dopamine transporter

Sodium-dependent dopamine transporter, sequence (Q01959 whole entry): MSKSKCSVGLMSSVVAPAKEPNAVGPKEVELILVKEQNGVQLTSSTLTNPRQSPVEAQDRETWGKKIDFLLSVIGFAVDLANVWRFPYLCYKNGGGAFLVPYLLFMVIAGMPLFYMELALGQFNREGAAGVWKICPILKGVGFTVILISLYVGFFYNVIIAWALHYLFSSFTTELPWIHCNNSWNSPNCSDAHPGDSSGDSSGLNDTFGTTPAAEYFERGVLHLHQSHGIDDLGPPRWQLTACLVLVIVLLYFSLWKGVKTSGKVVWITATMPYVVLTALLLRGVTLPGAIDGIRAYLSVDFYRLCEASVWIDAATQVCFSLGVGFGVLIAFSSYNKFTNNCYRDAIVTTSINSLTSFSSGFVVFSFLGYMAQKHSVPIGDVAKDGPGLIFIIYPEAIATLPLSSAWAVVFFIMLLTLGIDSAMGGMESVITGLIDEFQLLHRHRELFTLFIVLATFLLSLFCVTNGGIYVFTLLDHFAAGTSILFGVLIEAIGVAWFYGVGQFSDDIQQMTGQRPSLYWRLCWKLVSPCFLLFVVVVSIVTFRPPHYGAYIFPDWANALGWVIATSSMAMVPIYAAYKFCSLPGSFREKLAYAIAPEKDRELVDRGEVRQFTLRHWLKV

SMILES | IC50 [nM]
O=C(CCCCCCCCCCS)Nc1ccc(CCCN2CCN(CCOC(c3ccc(F)cc3)c3ccc(F)cc3)CC2)cc1 | 18
O=C(CCCCCCCCCCS)Nc1ccc(CCCN2CCN(CCOC(c3ccccc3)c3ccccc3)CC2)cc1 | 10
